Measured values reported in ChEMBL document CHEMBL4507270 (2021).
Activity calls are given as the source filed them. No cut-off for these calls is given here.

Legend:
[1] = target: Serine/threonine-protein kinase Nek4 (Homo sapiens) (UniProt P51957)
[2] = target: Tyrosine-protein kinase Fgr (Homo sapiens) (UniProt P09769)
[3] = system: Epidermal growth factor receptor (Homo sapiens), P00533 [G719C]
[4] = system: Proto-oncogene tyrosine-protein kinase receptor Ret (Homo sapiens), P07949 [V804M]
[5] = target: Macrophage-stimulating protein receptor (Homo sapiens) (UniProt Q04912)
[6] = target: Hepatocyte growth factor receptor (Homo sapiens) (UniProt P08581)
[7] = target: Muscarinic acetylcholine receptor M1 (Homo sapiens) (UniProt P11229); conditions: Compound concentration 10.0 uM
[8] = target: Ribosomal protein S6 kinase alpha-4 (Homo sapiens) (UniProt O75676)
[9] = target: Serine/threonine-protein kinase tousled-like 2 (Homo sapiens) (UniProt Q86UE8)
[10] = target: Mitogen-activated protein kinase 13 (Homo sapiens) (UniProt O15264)
[11] = target: Rho-associated protein kinase 1 (Homo sapiens) (UniProt Q13464)
[12] = target: STE20/SPS1-related proline-alanine-rich protein kinase (Homo sapiens) (UniProt Q9UEW8)
[13] = system: Receptor-type tyrosine-protein kinase FLT3 (Homo sapiens), P36888 [D835V]
[14] = target: Epithelial discoidin domain-containing receptor 1 (Homo sapiens, UniProt Q08345); test: NanoBRET assay (SGC Frankfurt) with DDR1
[15] = target: Activin receptor type-1-like (Homo sapiens) (UniProt P37023)
[16] = target: Cyclin-dependent kinase 16 (Homo sapiens) (UniProt Q00536)
[17] = target: Phosphatidylinositol 4-phosphate 3-kinase C2 domain-containing subunit beta (Homo sapiens) (UniProt O00750)
[18] = target: Mitogen-activated protein kinase kinase kinase 3 (Homo sapiens) (UniProt Q99759)
[19] = target: 3-phosphoinositide-dependent protein kinase 1 (Homo sapiens) (UniProt O15530)
[20] = target: Tyrosine-protein kinase ITK/TSK (Homo sapiens) (UniProt Q08881)
[21] = target: Ribosomal protein S6 kinase alpha-4 (Homo sapiens) (UniProt O75676); remark: listed apart in the source
[22] = target: Bone morphogenetic protein receptor type-1A (Homo sapiens) (UniProt P36894)
[23] = target: Non-receptor tyrosine-protein kinase TYK2 (Homo sapiens) (UniProt P29597)
[24] = target: Serine/threonine-protein kinase Sgk1 (Homo sapiens) (UniProt O00141)
[25] = target: Mitogen-activated protein kinase kinase kinase 10 (Homo sapiens) (UniProt Q02779)
[26] = target: Serine/threonine-protein kinase RIO1 (Homo sapiens) (UniProt Q9BRS2)
Ephrin type-B receptor 6 = target: T1, Ephrin type-B receptor 6 (Homo sapiens, UniProt O15197); test: NanoBRET assay (SGC Frankfurt) with EPHB6
T1 sequence (O15197 whole entry): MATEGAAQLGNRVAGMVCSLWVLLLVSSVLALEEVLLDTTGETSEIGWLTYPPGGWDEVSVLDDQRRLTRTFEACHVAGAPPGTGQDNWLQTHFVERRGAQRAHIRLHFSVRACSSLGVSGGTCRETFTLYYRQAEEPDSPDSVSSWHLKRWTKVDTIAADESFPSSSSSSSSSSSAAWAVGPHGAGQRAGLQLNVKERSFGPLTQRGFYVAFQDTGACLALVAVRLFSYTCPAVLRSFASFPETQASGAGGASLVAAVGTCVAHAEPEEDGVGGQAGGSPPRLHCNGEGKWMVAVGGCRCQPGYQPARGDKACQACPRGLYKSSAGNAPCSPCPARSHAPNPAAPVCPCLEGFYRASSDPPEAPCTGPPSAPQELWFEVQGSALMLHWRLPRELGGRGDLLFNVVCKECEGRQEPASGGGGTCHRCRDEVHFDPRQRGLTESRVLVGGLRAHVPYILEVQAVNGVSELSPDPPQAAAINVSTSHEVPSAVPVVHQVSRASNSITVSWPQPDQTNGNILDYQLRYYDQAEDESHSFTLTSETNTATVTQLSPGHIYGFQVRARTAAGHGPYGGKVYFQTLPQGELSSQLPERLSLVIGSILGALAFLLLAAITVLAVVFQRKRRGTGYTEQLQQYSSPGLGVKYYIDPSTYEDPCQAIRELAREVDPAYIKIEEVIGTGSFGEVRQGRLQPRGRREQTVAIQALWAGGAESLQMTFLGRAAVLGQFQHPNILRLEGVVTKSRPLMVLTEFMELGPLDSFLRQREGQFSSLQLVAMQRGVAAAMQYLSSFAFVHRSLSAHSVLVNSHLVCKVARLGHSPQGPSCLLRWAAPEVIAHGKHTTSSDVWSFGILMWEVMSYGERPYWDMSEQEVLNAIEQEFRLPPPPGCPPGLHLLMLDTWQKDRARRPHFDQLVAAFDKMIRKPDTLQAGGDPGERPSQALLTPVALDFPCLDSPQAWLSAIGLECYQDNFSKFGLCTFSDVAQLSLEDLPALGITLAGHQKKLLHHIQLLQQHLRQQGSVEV

[27] = target: Serine/threonine-protein kinase Sgk3 (Homo sapiens) (UniProt Q96BR1)
[28] = target: High affinity nerve growth factor receptor (Homo sapiens) (UniProt P04629)
[29] = target: Mitogen-activated protein kinase kinase kinase 9 (Homo sapiens) (UniProt P80192)
[30] = target: Dual specificity protein kinase TTK (Homo sapiens) (UniProt P33981)
[31] = Compound concentration 1000.0 nM
[32] = Compound concentration 100.0 nM

Sequence of Ribosomal protein S6 kinase alpha-4 (Homo sapiens) (O75676 whole entry, looked up): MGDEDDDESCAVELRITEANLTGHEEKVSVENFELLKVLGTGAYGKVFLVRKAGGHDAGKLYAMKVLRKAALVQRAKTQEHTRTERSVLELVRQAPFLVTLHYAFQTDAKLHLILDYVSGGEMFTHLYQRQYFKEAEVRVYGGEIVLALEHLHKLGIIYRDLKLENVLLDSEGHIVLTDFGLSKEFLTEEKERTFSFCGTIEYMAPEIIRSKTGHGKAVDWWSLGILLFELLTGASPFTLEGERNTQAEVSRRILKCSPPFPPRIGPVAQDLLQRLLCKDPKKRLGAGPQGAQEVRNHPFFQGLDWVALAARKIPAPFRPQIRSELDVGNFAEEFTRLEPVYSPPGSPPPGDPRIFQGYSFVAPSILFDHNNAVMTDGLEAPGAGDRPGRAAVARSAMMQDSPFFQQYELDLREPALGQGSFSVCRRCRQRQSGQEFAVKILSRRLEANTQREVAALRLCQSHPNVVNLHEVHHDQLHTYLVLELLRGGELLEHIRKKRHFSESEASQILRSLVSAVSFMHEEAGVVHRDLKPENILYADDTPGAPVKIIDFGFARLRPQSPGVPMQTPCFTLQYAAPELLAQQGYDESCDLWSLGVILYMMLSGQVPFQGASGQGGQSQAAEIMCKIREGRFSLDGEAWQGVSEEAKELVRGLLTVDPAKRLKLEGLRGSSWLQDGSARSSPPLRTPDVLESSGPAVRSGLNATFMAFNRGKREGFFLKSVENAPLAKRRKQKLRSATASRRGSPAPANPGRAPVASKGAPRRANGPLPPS
Sequence of Epithelial discoidin domain-containing receptor 1 (Q08345 whole entry, the tested form may be a part): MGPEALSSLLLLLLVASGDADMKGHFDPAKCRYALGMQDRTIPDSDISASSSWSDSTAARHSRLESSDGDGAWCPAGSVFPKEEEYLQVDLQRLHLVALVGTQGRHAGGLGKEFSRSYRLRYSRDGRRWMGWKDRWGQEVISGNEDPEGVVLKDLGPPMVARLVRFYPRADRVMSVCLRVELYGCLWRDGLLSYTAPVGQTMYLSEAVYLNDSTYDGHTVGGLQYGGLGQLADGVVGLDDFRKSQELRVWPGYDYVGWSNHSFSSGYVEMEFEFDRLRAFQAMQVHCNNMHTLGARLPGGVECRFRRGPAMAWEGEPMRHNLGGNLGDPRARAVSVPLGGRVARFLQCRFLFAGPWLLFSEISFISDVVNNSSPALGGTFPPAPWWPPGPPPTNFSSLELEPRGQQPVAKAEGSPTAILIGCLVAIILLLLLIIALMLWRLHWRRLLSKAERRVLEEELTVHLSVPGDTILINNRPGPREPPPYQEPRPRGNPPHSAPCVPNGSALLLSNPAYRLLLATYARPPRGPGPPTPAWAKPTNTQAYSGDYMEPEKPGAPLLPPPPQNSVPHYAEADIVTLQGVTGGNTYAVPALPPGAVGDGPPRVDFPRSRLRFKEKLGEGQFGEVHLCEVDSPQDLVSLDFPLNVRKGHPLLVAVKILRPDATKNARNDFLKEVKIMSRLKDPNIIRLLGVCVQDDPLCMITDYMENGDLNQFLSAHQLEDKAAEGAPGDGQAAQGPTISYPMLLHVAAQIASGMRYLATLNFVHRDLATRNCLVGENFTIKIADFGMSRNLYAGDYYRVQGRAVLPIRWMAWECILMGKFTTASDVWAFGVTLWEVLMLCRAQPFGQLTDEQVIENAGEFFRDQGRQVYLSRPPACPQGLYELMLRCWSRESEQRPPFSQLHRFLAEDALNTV
Sequence of Bone morphogenetic protein receptor type-1A (Homo sapiens) (P36894 whole entry): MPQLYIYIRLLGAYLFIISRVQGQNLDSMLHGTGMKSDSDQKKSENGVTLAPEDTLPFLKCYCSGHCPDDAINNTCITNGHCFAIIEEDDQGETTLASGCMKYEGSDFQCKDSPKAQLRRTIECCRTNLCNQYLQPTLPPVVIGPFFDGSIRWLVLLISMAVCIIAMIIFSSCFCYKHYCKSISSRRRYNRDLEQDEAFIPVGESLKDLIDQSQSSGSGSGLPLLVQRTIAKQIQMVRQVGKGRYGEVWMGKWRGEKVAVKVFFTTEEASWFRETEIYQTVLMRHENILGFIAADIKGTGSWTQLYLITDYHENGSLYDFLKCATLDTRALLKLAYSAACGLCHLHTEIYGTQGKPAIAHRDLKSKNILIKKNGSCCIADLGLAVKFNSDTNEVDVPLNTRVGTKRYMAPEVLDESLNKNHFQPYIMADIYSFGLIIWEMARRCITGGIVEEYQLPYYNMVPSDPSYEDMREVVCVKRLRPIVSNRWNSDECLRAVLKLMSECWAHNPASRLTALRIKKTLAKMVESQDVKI
Sequence of Dual specificity protein kinase TTK (Homo sapiens) (P33981 whole entry): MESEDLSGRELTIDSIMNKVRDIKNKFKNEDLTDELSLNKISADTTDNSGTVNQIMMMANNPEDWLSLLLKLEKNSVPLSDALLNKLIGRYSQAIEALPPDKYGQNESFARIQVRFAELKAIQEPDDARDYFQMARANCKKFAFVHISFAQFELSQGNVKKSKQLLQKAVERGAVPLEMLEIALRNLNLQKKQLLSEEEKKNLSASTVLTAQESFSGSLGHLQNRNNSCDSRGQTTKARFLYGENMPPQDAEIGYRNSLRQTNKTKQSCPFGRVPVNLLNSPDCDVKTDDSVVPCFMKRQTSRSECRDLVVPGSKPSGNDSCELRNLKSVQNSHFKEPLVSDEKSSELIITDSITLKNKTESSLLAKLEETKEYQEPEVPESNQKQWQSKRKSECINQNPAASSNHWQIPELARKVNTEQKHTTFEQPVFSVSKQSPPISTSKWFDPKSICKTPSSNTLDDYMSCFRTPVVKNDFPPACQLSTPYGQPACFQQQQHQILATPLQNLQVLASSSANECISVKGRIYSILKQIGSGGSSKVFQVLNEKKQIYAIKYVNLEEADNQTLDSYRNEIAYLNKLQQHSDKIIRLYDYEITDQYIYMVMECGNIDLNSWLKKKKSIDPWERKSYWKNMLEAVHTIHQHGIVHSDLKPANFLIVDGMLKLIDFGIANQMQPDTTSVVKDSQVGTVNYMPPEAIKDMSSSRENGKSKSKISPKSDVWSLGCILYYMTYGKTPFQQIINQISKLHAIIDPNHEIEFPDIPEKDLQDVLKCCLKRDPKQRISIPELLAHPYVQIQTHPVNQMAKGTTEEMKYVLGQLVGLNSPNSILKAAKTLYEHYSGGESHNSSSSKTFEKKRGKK
Sequence of Serine/threonine-protein kinase Sgk1 (Homo sapiens) (O00141 whole entry): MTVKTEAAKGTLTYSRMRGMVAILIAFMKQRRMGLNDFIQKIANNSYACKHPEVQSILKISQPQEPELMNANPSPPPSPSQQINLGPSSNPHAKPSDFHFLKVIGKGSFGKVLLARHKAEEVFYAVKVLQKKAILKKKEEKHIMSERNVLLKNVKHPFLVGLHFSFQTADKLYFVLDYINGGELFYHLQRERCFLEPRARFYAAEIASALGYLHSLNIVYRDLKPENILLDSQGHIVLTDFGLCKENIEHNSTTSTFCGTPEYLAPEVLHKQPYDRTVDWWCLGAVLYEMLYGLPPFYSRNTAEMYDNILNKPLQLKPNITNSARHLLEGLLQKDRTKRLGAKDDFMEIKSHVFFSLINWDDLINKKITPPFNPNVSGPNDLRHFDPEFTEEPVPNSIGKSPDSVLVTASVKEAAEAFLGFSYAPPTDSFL
Sequence of Cyclin-dependent kinase 16 (Homo sapiens) (Q00536 whole entry, the tested form may be a part): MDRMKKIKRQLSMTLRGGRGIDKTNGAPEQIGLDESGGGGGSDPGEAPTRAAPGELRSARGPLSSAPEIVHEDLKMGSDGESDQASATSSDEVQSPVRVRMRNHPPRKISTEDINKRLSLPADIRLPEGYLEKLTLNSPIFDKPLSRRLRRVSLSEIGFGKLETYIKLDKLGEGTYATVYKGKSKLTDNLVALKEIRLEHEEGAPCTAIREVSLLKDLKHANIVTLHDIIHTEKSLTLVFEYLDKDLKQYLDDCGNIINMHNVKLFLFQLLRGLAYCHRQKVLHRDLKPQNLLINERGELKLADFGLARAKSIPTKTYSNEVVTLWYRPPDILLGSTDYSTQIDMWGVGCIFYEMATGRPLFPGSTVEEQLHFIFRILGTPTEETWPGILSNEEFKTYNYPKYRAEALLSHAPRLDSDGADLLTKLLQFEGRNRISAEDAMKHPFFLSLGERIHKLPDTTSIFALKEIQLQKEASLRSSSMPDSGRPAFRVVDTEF
Sequence of Serine/threonine-protein kinase RIO1 (Homo sapiens) (Q9BRS2 whole entry): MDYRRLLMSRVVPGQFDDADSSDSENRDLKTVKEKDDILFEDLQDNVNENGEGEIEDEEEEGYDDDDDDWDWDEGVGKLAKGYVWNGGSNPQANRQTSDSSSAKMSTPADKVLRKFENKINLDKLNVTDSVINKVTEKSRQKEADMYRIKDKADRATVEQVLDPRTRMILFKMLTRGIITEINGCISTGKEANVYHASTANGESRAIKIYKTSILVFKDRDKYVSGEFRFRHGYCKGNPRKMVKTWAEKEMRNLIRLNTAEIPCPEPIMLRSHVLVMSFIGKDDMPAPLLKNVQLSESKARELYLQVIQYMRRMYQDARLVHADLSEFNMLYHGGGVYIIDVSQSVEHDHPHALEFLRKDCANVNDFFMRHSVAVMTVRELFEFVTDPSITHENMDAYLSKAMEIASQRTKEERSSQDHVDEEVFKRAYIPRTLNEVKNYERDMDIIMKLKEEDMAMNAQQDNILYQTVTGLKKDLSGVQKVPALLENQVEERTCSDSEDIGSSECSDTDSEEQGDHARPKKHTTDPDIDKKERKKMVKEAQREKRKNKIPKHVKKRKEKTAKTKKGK
Sequence of Mitogen-activated protein kinase 13 (Homo sapiens) (O15264 whole entry): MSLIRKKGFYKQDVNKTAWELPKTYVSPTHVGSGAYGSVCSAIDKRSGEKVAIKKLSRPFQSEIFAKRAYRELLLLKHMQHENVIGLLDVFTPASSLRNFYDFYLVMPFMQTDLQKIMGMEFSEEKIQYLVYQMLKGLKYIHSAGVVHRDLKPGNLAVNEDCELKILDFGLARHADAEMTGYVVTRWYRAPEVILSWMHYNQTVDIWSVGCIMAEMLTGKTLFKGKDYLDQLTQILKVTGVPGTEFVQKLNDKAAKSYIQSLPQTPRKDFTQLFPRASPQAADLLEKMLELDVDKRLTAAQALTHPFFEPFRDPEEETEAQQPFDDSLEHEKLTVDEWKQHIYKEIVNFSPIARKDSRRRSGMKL

Cc1cc(NC(=O)c2cccc(S(F)(F)(F)(F)F)c2)cc(-n2ccn3nc(-c4cccnc4)cc23)c1 [BAY-309]
residual activity [1, 31]: 92.9%
residual activity [2, 31]: 100%
residual activity [3, 31]: 94.2%
residual activity [4, 31]: 74.2%
residual activity [5, 31]: 71%
residual activity [6, 31]: 77.3%
inhibition [7]: 9.28%
residual activity [8, 31]: 100%
residual activity [9, 31]: 94.3%
residual activity [10, 31]: 79.6%
residual activity [11, 31]: 74.8%
residual activity [12, 31]: 100%
residual activity [13, 31]: 100%
EC50 [14]: 0.2 µM (not active)
IC50 [14]: 0.34 µM (not active)
residual activity [15, 31]: 100%
residual activity [16, 31]: 100%
residual activity [17, 31]: 100%
residual activity [18, 31]: 87.9%
residual activity [19, 31]: 92%
residual activity [20, 31]: 100%
residual activity [21, 31]: 100%
residual activity [22, 31]: 94.4%
residual activity [23, 31]: 51%
residual activity [24, 31]: 81.3%
residual activity [25, 31]: 100%
residual activity [26, 31]: 100%
EC50 (Ephrin type-B receptor 6): 27 µM (not active)
IC50 (Ephrin type-B receptor 6): 11 µM (not active)
residual activity [27, 31]: 72.1%
residual activity [28, 31]: 40.2%
residual activity [29, 31]: 77.7%
residual activity [30, 31]: 44.8%

Cc1cc(C)c(-n2ccn3nc(-c4cccnc4)cc23)cc1NC(=O)c1cc(C#N)cc(S(F)(F)(F)(F)F)c1 [BAY-826]
residual activity [1, 32]: 90.2%
residual activity [2, 32]: 84.9%
residual activity [3, 32]: 91.6%
residual activity [4, 32]: 94.5%
residual activity [5, 32]: 75.6%
residual activity [6, 32]: 82.8%
inhibition [7]: 24.8%
residual activity [8, 32]: 100%
residual activity [9, 32]: 100%
residual activity [10, 32]: 65.6%
residual activity [11, 32]: 74.9%
residual activity [12, 32]: 64.6%
residual activity [13, 32]: 85.2%
EC50 [14]: 0.0015 µM (active)
IC50 [14]: 0.0009 µM (active)
residual activity [15, 32]: 78.9%
residual activity [16, 32]: 92.5%
residual activity [17, 32]: 93.4%
residual activity [18, 32]: 67.3%
residual activity [19, 32]: 100%
residual activity [20, 32]: 84.9%
residual activity [21, 32]: 79.3%
residual activity [22, 32]: 97.2%
residual activity [23, 32]: 76.9%
residual activity [24, 32]: 100%
residual activity [25, 32]: 100%
residual activity [26, 32]: 100%
EC50 (Ephrin type-B receptor 6): 12 µM (not active)
IC50 (Ephrin type-B receptor 6): 3.9 µM (not active)
residual activity [27, 32]: 81.5%
residual activity [28, 32]: 74.8%
residual activity [29, 32]: 79.5%
residual activity [30, 32]: 72%
